Series [1] has as its system MDA-MB-231 (breast adenocarcinoma). Nature of the series: Cell viability of chemoresistant MDA-MB-231 cells (Tables 1, 2, 4). The source says: (§1) The activity of the association of at least one flavonoid with synthetic chemotherapeutic agents (cyclophosphamide/methotrexate) and/or arctigenin, arctiin, berberine, berbamine, sanguinarine and chelerythrine (indicated with the term “Extracts” in the Tables) was studied in resistant cell lines of adenocarcinomas and carcinomas in comparison with chemosensitive tumour cell lines and line cells.
(§2) In particular, chemoresistant human tumour cells MDA-MB-231 (breast adenocarcinoma), ECV-304 (bladder carcinoma), HuH-7 (hepatocellular carcinoma) and HTB-43 (squamous cell carcinoma of the pharynx), chemosensitive tumour cells MCF-7 (breast adenocarcinoma) and non-tumoral healthy human mammal fibroblasts (HMF) were used.

A further series in a line: in vitro. The following applies: human.
Excerpt: as §1, §2

Series [2] relates to MCF-7 (breast adenocarcinoma). In words: Cell viability of chemosensitive MCF-7 cells (Table 1). As to conditions: Homo sapiens, MCF7, read-out: Cell viability (%) MCF-7.
Excerpt: as §1, §2

Another series has as its system MDA-MB-231 cells. Nature of the series: Cell viability of MDA-MB-231 cells after 7 days of treatment (Tables 7-9). In kind it is cell-based, human.
The test system of series [3] is healthy human mammal fibroblasts (HMF). Nature of the series: Cell viability of non-tumoral healthy fibroblasts HMF (Table 1). As to conditions: control = 100.
Excerpt: as §1, §2

For series [4], the system named is HTB-43 (squamous cell carcinoma of the pharynx). Nature of the series: cells. The following applies: Homo sapiens, read-out: Cell viability (%) HTB-43.
Excerpt: as §1, §2

Series [5] relates to ECV-304 (bladder carcinoma). Nature of the series: cells. As to conditions: Homo sapiens, ECV-304, read-out: Cell viability (%) ECV-304.
Excerpt: as §1, §2

The subject of series [6] is HuH-7 (hepatocellular carcinoma). In words: cells. As to conditions: Homo sapiens, Huh-7, read-out: Cell viability (%) HuH-7.
Excerpt: as §1, §2

Where [7] appears, read: Homo sapiens, MDA-MB-231, read-out: Cell viability (%) MDA-MB-231.

As usually defined, the viability is the share of living cells, or the viability signal relative to a control. Take `O=c1c(O)c(-c2ccc(O)c(O)c2)oc2cc(O)cc(O)c12` [Quercetin, quercetin]: in series [1] (setting [7]), the viability at 20 µM worked out at 91%, the viability at 50 µM is 81% and the viability at 100 µM stood at 76%. The “Synergistic effect in association with cyclophosphamide” value in series [1] (MDA-MB-231 cells, alone or with cyclophosphamide 850 ng/mL) is reported as “absence of synergistic effects”.

Turning to `C[C@@H]1O[C@@H](OC[C@H]2O[C@@H](Oc3c(-c4ccc(O)c(O)c4)oc4cc(O)cc(O)c4c3=O)[C@H](O)[C@@H](O)[C@@H]2O)[C@H](O)[C@H](O)[C@H]1O` [Rutin, 2-(3,4-dihydroxyphenyl)-4,5-dihydroxy-3-{3,4,5-trihydroxy-6-[(3,4,5-trihydroxy-6-methyl-oxan-2-yl)oxymethyl}oxan-2-yl]oxy-chromen-7-one], in the series “in vitro”, the viability at 20 µM was determined as 92%, the viability at 50 µM amounted to 88% and the viability at 100 µM stood at 86%. For the same compound, in series [2], the viability at 20 µM was found to be 8%, the viability at 50 µM came out at 5% and the viability at 100 µM was 4%. Further, the “Effect on cell viability of adding the flavonoid to cyclophosphamide 20 μM+methotrexate 2 μM” value in the series with MDA-MB-231 cells (20 μM of rutin, MDA-MB-231, 7 days) is “further reduces cell viability”. Besides, in the series with MDA-MB-231 cells (rutin at 100 μM and 50 μM, MDA-MB-231, 7 days), the “Effect on cell viability of adding the flavonoid to cyclophosphamide 40 μM+methotrexate 4 μM” value is listed as “no statistically relevant difference”. In addition, in series [1] (setting [7]), the viability at 20 µM is 66%, the viability at 50 µM amounted to 58% and the viability at 100 µM was determined as 51%.

In the case of `O=P1(N(CCCl)CCCl)NCCCO1` (stereo not shown) [Cyclophosphamide, cyclophosphamide], the entries for the “Cell viability (%) HMF” value in series [3] (single agent at 850 ng/mL), in series [3] (single agent at 1000 ng/mL) and in series [3] (single agent at 1300 ng/mL) were 54%, 48% and 42%, respectively. Moreover, the viability at 0.85 µg/mL in series [2] is 6.9%; in series [4] it was 36%; in series [5] it was 70%; in series [6] it was 58%; in series [1] (setting [7]), 96%. In addition, the viability at 1 µg/mL is 7.5% in series [2] and 93% in series [1] (setting [7]). Also, the viability at 1.3 µg/mL in series [2] stood at 8.6%; in series [1] (setting [7]), 89%. Further, the viability at 40 µM with MDA-MB-231 cells (Homo sapiens, MDA-MB-231, 168 h, read-out: Cell viability % (MDA-MB-231, 7 days)) stood at 1.07 ± 0.22%.

Source of the values: patent publication US11096975B2, “Compositions for use in the treatment of tumors resistant to chemotherapy” (PROBIOTICAL S.P.A., priority 2015, dated 2021).
